The text below walks through data of US20220289787A1, “DIMER COMBINATIONS AND USES THEREOF” (Ripple Therapeutics Corporation, priority 2019, published 2022).

A short description of this series: Drug release from heat-molded pellets of Compound 1 in PBS at 37° C. (HPLC). Format: physicochemical. To be noted: FIG. 2. The protocol: Heat-molded pellets from Compound 1 (^˜1 mm×1 mm) were placed in 20 mL glass vials and 2 mL of the release buffer phosphate buffered saline (PBS) was added.

Turning to `C[C@@H]1C[C@H]2[C@@H]3CCC4=CC(=O)C=C[C@]4(C)[C@@]3(F)[C@@H](O)C[C@]2(C)[C@@]1(O)C(=O)COC(=O)OCCOCCOCCOC(=O)OCC(=O)[C@@]1(O)[C@H](C)C[C@H]2[C@@H]3CCC4=CC(=O)C=C[C@]4(C)[C@@]3(F)[C@@H](O)C[C@@]21C` [Compound 1, dexamethasone-triethylene glycol-dexamethasone], the “dexamethasone release profile (cumulative drug release)” value (heat-molded pellets ~1 mm×1 mm) is on record as “zero-order (e.g., near zero order) release”. For the same molecule, the “duration of zero-order release” value (heat-molded pellets) was “at least 100 days”.
